Laboratory results reported in patent US4921850A, “3-propenylcephem derivative” (Eisai Co., Ltd., priority 1986, dated 1990).
Converted amounts (≈) assume the structure as drawn. Where two headings read alike, the source gives them in different places.

Key:
in vivo = settings: intravenous, physiological saline solution, five ICR male 6 weeks-old mouse, read-out: values of acute toxicity
Source text: (1) Acute toxicity in mouse:
The compounds according to this invention dissolved in a physiological saline solution were intravenously dosed to five ICR male 6 weeks-old mouse.

Kleb. pneumoniae EK-6 = assay: Anti-bacterial activity (MIC), agar dilution; assay type: cell-based; settings: Kleb. pneumoniae EK-6, agar dilution, about 10^6 CFU/ml, 18 hours, 37° C.
Method in brief: (§1)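 Overnight Mueller-Hinton broth cultures were diluted to about 10^6 CFU/ml and spotted onto Mueller-Hinton agar plates carrying twofold serial dilutions of antibiotic. After 18 hours at 37° C, MIC (μg/ml) was determined by agar dilution.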

Staph. aureus 209-P = assay: Anti-bacterial activity (MIC), agar dilution; assay type: cell-based; settings: Staph. aureus 209-P, agar dilution, about 10^6 CFU/ml, 18 hours, 37° C.
Method in brief: as §1

Ser. marcescens ES-75 = assay: Anti-bacterial activity (MIC), agar dilution; assay type: cell-based; settings: Ser. marcescens ES-75, agar dilution, about 10^6 CFU/ml, 18 hours, 37° C.
Method in brief: as §1

Escher. coli NIHJ = assay: Anti-bacterial activity (MIC), agar dilution; assay type: cell-based; settings: Escher. coli NIHJ, agar dilution, about 10^6 CFU/ml, 18 hours, 37° C.
Method in brief: as §1

[1] = tested on: Morganella morganii EP-14; assay: Anti-bacterial activity (MIC), agar dilution; assay type: cell-based; settings: about 10^6 CFU/ml, 37° C.
Method in brief: as §1

Pseud. aeruginosa EP-01 = assay: Anti-bacterial activity (MIC), agar dilution; assay type: cell-based; settings: Pseud. aeruginosa EP-01, agar dilution, about 10^6 CFU/ml, 18 hours, 37° C.
Method in brief: as §1

[2] = Klebsiella pneumoniae, EK6, 18 h, read-out: MIC
[3] = Staphylococcus aureus, 209P, 18 h, read-out: MIC
[4] = Serratia marcescens, ES75, 18 h, read-out: MIC
[5] = Escherichia coli, 18 h, read-out: MIC
[6] = Morganella morganii, EP14, 18 h, read-out: MIC
[7] = Pseudomonas aeruginosa, EP01, 18 h, read-out: MIC

Structure (SMILES)	LD50 (in vivo) [mg/kg]	MIC (Kleb. pneumoniae EK-6) [µg/mL]	MIC (Staph. aureus 209-P) [µg/mL]	MIC (Ser. marcescens ES-75) [µg/mL]	MIC (Escher. coli NIHJ) [µg/mL]	MIC ([1]; 18 hours) [µg/mL]	MIC (Pseud. aeruginosa EP-01) [µg/mL]	MIC (Kleb. pneumoniae EK-6; [2]) [µg/mL]	MIC (Staph. aureus 209-P; [3]) [µg/mL]	MIC (Ser. marcescens ES-75; [4]) [µg/mL]	MIC (Escher. coli NIHJ; [5]) [µg/mL]	MIC [1, 6] [µg/mL]	MIC (Pseud. aeruginosa EP-01; [7]) [µg/mL]
Nc1nc(/C(=N/OCF)C(=O)N[C@@H]2C(=O)N3C(C(=O)[O-])=C(/C=C/C[N+]4(CCO)C[C@H](O)C[C@H]4CO)CS[C@H]23)ns1 (single isomer, unassigned) [Example 7-2, 7β-[2-(5-Amino-1,2,4-thiadiazol-3-yl)-(Z)-2-fluoromethoxyiminoacetamido]-3-[(E)-3-[4R-hydroxy-1-(2-hydroxyethyl)-2S-hydroxymethyl-1-pyrrolidinio]-1-propen-1-yl]-3-cephem-4-carboxylate]	> 2000	≤ 0.025	0.2 (≈ 0.332 µM)	≤ 0.025	≤ 0.025	≤ 0.025	0.8 (≈ 1.33 µM)	–	–	–	–	–	–
CC(C(N)=O)[N+]1(C/C=C/C2=C(C(=O)[O-])N3C(=O)[C@@H](NC(=O)/C(=N\OCF)c4nsc(N)n4)[C@H]3SC2)CCCC1 (single isomer, unassigned) [Example 13-1]	> 2000	–	–	–	–	–	–	≤ 0.025	0.2 (≈ 0.343 µM)	≤ 0.025	≤ 0.025	≤ 0.025	0.8 (≈ 1.37 µM)
C[C@@H](C(N)=O)[N+](C)(C)C/C=C/C1=C(C(=O)[O-])N2C(=O)[C@@H](NC(=O)/C(=N\OCF)c3nsc(N)n3)[C@H]2SC1 [Example 3-1]	> 2000	–	–	–	–	–	–	≤ 0.025	0.2 (≈ 0.359 µM)	0.05 (≈ 0.0898 µM)	≤ 0.025	≤ 0.025	0.8 (≈ 1.44 µM)
C[C@H](C(N)=O)[N+](C)(C)C/C=C/C1=C(C(=O)[O-])N2C(=O)[C@@H](NC(=O)/C(=N\OCF)c3nsc(N)n3)[C@H]2SC1 [Example 3-2, 7β-[2-(5-Amino-1,2,4-thiadiazol-3-yl)-(Z)-2-fluoromethoximinoacetamido]-3-[(E)-3-[(1R-carbamoylethyl)dimethylammonio]-1-propen-1-yl]-3-cephem-4-carboxylate]	> 2000	–	–	–	–	–	–	≤ 0.025	0.2 (≈ 0.359 µM)	0.1 (≈ 0.18 µM)	≤ 0.025	≤ 0.025	1.56 (≈ 2.8 µM)
C[N+](C)(C/C=C/C1=C(C(=O)[O-])N2C(=O)[C@@H](NC(=O)/C(=N\OCF)c3nsc(N)n3)[C@H]2SC1)[C@H](CO)C(N)=O [Example 5, 7β-[2-(5-Amino-1,2,4-thiadiazol-3-yl)-(Z)-2-fluoromethoxyiminoacetamido]-3-[(E)-3-[(1R-carbamoyl-2-hydroxyethyl)dimethylammonio]-1-propen-1-yl]-3-cephem-4-carboxylate]	> 2000	–	–	–	–	–	–	≤ 0.025	0.2 (≈ 0.349 µM)	≤ 0.025	≤ 0.025	≤ 0.025	0.8 (≈ 1.4 µM)
NC(=O)C[N+]1(C/C=C/C2=C(C(=O)[O-])N3C(=O)[C@@H](NC(=O)/C(=N\OCF)c4nsc(N)n4)[C@H]3SC2)CCC(O)C1 (stereo partly drawn) [Example 9-1, 7β-[2-(5-Amino-1,2,4-thiadiazol-3-yl)-(Z)-2-fluoromethoxyiminoacetamido]-3-[(E)-3-(1-carbamoylmethyl-3-hydroxy-1-pyrrolidinio)-1-propen-1-yl]-3-cephem-4-carboxylate]	> 2000	–	–	–	–	–	–	≤ 0.025	0.4 (≈ 0.684 µM)	≤ 0.025	≤ 0.025	≤ 0.025	0.8 (≈ 1.37 µM)
C[N+]1(C/C=C/C2=C(C(=O)[O-])N3C(=O)[C@@H](NC(=O)/C(=N\OCF)c4nsc(N)n4)[C@H]3SC2)CCN(S(=O)(=O)O)CC1 [Example 10, 7β-[2-(5-Amino-1,2,4-thiadiazol-3-yl)-(Z)-2-fluoromethoxyiminoacetamido]-3-[(E)-3-(1-methyl-4-sulfo-1-piperazinio)-1-propen-1-yl]-3-cephem-4-carboxylate]	> 2000	–	–	–	–	–	–	≤ 0.025	0.8 (≈ 1.29 µM)	≤ 0.025	≤ 0.025	≤ 0.025	1.56 (≈ 2.51 µM)
